Data on two molecules can be found in patent publication US20200268786A1, “RNA CONTAINING COMPOSITIONS AND METHODS OF THEIR USE” (Icahn School of Medicine at Mount Sinai, priority 2015, published 2020).

The subject of this assay is human monocyte derived DCs (moDCs). Kind of assay: cytokine production of human moDCs stimulated with ncRNA (DOTAP liposomal transfection or none). The format is cell-based. The following applies: DOTAP liposomal transfection, 2 ug/ml ncRNA. The protocol:
PCR products were purified by PCR-Cleanup (Qiagen) and controlled by electrophoresis (0.8% Agarose gel). RNAs were generated by in vitro transcription using the mMESSAGE mMACHINE T7 ultra kit (Ambion) followed by a capping and short polyA reaction. RNAs were then purified using RNA-cleanup (Qiagen), quantified using a nanodrop, and checked by electrophoresis after denaturation at 65° C. for 10 minutes (1 5% Agarose gel).
MoDCs and imBM were both stimulated by i-ncRNA in the same way. The culturing of these cells is described below. Briefly, cells were plated in 96 flat well plates at 200,000 cells per well for primary cells (MoDCs) and 100,000 cells per well for lines (IMBM). i-ncRNA were transfected via liposomes formed using DOTAP (Roche Life Science) at a ratio of 1 μg DNA per 6 μl DOTAP diluted in HBS following the user-guide recommendations. The cells were stimulated using 2 μg/ml of purified i-ncRNA versus 10 μg/ml total RNA. To stimulate the TLR4 pathway, 100 ng/ml Ultrapure LPS (Invivogen) was used for TLR2: 500 ng/ml Pam2CSK4 (Invivogen) for TLR3: 2 μg/ml HMW PolyIC (Invivogen) TLR7/8: 1 μg/ml CLO97 (Invivogen) and 100 ng/ml R848 (Invivogen) TLR9: CpG B-ODN 1826 3 μM or STING CDN 5 μg/ml (Aduro).
Human moDCs: Human monocyte derived DCs were differentiated as previously described (Frleta et al., “HIV-1 Infection-Induced Apoptotic Microparticles Inhibit Human DCs via CD44,” J. Clinical Invest. 122:4685 (2012), which is hereby incorporated by reference in its entirety). Briefly, PBMCs were prepared by centrifugation over Ficoll-Hypaque gradients (BioWhittaker) from healthy donor buffy coats (New York Blood Center). Monocytes were isolated from PBMCs by adherence and then treated with 100 U/ml GM-CSF (Leukine Sanofi Oncology) and 300 U/ml IL-4 (RandD) in RPMI plus 5% human AB serum (Gemini Bio Products). Differentiation media was renewed on day 2 and day 4 of culture. Mature moDCs were harvested for use on days 5 to 7. For all experiments, harvested DCs were washed and equilibrated in serum-free X-Vivo 15 media (Lonza).

Consider `CCOCc1nc2c(N)nc3ccccc3c2n1CC(C)(C)O` [R848], for which the IL-6 production entry was “induced a cellular inflammatory response”, the IL-12 production entry is reported as “induced a cellular inflammatory response” and the TNFalpha production entry is given as “induced a cellular inflammatory response”.
With Poly-IC, the IL-6 production entry was “induced a cellular inflammatory response”, the IL-12 production result was “induced a cellular inflammatory response” and the TNFalpha production result is on record as “induced a cellular inflammatory response”.
